pIC50: −log10 of the molar value. Positions of bridges follow the written chain, without caps; N, C: chain ends. Residues, ends and D or L forms follow the SMILES beside them.

The target in the first assay is hNav1.7 (Homo sapiens, UniProt Q15858). Description: cell-based. The conditions noted are these: Nav1.7 Use IC50.
hNav1.7, sequence (Q15858 whole entry, looked up): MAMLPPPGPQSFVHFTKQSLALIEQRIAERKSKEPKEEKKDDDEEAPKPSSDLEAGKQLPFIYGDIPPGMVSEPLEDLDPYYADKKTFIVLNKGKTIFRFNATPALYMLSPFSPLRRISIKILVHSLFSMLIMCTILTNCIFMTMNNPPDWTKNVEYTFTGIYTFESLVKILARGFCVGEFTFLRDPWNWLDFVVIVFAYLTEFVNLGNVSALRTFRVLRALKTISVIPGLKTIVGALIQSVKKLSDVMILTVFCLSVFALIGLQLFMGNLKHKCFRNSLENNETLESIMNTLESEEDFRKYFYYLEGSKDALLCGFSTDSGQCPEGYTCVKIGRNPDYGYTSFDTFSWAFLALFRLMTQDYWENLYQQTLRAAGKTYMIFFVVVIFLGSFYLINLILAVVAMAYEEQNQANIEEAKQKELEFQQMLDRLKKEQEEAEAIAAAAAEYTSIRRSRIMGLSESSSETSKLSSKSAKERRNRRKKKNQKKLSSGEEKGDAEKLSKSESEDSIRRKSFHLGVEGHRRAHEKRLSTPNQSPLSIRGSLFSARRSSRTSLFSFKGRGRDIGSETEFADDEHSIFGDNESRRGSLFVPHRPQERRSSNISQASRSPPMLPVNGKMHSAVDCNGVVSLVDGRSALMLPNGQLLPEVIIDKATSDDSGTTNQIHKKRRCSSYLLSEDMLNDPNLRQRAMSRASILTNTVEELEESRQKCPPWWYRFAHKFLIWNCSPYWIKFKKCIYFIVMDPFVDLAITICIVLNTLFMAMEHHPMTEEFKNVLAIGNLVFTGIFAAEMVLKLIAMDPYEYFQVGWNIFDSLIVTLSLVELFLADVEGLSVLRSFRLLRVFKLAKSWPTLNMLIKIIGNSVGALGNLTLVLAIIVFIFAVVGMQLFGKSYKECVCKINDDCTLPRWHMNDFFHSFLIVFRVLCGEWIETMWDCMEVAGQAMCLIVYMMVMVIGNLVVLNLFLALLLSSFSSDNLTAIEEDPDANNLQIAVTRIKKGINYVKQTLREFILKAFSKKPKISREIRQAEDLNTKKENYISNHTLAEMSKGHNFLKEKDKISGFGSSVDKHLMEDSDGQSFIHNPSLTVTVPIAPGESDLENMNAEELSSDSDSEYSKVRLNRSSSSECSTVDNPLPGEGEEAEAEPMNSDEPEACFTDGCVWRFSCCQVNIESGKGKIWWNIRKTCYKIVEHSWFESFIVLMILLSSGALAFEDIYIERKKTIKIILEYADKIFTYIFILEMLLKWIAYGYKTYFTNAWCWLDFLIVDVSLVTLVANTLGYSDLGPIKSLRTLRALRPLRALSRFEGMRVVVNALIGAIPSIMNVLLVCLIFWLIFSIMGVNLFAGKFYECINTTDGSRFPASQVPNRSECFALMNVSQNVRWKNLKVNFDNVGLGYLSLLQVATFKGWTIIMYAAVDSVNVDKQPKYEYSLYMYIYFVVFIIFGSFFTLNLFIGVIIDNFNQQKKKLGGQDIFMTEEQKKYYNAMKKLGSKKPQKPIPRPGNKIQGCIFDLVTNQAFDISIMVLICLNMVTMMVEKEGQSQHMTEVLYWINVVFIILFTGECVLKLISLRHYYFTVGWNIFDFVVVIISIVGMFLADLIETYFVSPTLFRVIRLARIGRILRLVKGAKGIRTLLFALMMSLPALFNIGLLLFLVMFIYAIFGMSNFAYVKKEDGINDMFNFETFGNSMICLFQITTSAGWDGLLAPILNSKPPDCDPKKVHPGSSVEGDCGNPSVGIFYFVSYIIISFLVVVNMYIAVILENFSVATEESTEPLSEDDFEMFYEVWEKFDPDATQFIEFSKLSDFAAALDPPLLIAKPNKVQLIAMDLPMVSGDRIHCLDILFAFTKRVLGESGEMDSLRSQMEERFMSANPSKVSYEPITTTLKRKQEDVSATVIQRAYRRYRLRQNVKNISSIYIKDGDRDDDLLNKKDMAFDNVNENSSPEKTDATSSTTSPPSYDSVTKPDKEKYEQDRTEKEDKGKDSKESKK
The pIC50 is the IC50 on a negative log10 scale, so that one unit is a factor of ten. `CSCC[C@@H]1NC(=O)[C@H](Cc2ccccc2)NC(=O)CNC(=O)[C@H](CC(C)C)NC(=O)[C@@H](NC(=O)[C@@H](N)CC(=O)O)CSSC[C@@H]2NC(=O)[C@@H]3CSSC[C@@H](C(=O)N[C@@H](CCCCN)C(=O)N[C@@H](Cc4ccc(O)cc4)C(=O)N[C@H](C(=O)N[C@@H](Cc4ccccc4)C(N)=O)C(C)C)NC(=O)[C@H](Cc4c[nH]c5ccccc45)NC(=O)[C@H](CCCCN)NC(=O)[C@H](Cc4cnc[nH]4)NC(=O)[C@H]([C@@H](C)O)NC(=O)[C@H](CCCNC(=N)N)NC(=O)[C@H](CO)NC(=O)[C@H](CSSC[C@H](NC(=O)[C@H](CCCCN)NC(=O)[C@H](CCCNC(=N)N)NC1=O)C(=O)N[C@@H](CC(N)=O)C(=O)N1CCC[C@H]1C(=O)N[C@@H](CC(=O)O)C(=O)N[C@@H](CC(N)=O)C(=O)N[C@@H](CC(=O)O)C(=O)N[C@@H](CCCCN)C(=O)N3)NC(=O)[C@H](C(C)C)NC(=O)[C@H](CC(C)C)NC(=O)[C@H](CC(N)=O)NC(=O)[C@@H]1CCCN1C(=O)[C@H](CCCNC(=N)N)NC2=O` [[Asn10]GpTx-1(1-34)] (H-DCLGFMRKCNPDNDKCCRPNLVCSRTHKWCKYVF-NH2; disulfide 2-17, 9-23, 16-30): the pIC50 is 8.70.

On to `CSCC[C@@H]1NC(=O)[C@H](Cc2ccccc2)NC(=O)CNC(=O)[C@H](CC(C)C)NC(=O)[C@@H](NC(=O)[C@@H](N)CC(=O)O)CSSC[C@@H]2NC(=O)[C@@H]3CSSC[C@@H](C(=O)N[C@@H](CCCCN)C(=O)N[C@@H](Cc4ccc(O)cc4)C(=O)N[C@H](C(=O)N[C@@H](Cc4ccccc4)C(N)=O)C(C)C)NC(=O)[C@H](Cc4c[nH]c5ccccc45)NC(=O)[C@H](CCCCN)NC(=O)[C@H](Cc4cnc[nH]4)NC(=O)[C@H]([C@@H](C)O)NC(=O)[C@H](CCCNC(=N)N)NC(=O)[C@H](CO)NC(=O)[C@H](CSSC[C@H](NC(=O)[C@H](CCCCN)NC(=O)[C@H](CCCNC(=N)N)NC1=O)C(=O)N[C@@H](CC(=O)O)C(=O)N1CCC[C@H]1C(=O)N[C@@H](CC(=O)O)C(=O)N[C@@H](CC(N)=O)C(=O)N[C@@H](CC(=O)O)C(=O)N[C@@H](CCCCN)C(=O)N3)NC(=O)[C@H](C(C)C)NC(=O)[C@H](CC(C)C)NC(=O)[C@H](CC(N)=O)NC(=O)[C@@H]1CCCN1C(=O)[C@H](CCCNC(=N)N)NC2=O` [[Asp10]GpTx-1(1-34)] (H-DCLGFMRKCDPDNDKCCRPNLVCSRTHKWCKYVF-NH2; disulfide 2-17, 9-23, 16-30), for which the pIC50 is 8.52.

Regarding `CC[C@H](C)[C@@H]1NC(=O)[C@@H]2CSSC[C@@H]3NC(=O)[C@H](C(C)C)NC(=O)[C@H](CC(C)C)NC(=O)[C@H](CC(N)=O)NC(=O)[C@@H]4CCCN4C(=O)[C@H](CCCNC(=N)N)NC(=O)[C@H](CSSC[C@H](NC(=O)[C@@H](N)CC(=O)O)C(=O)N[C@@H](CC(C)C)C(=O)NCC(=O)N[C@@H](Cc4ccccc4)C(=O)N[C@@H](CCSC)C(=O)N[C@@H](CCCNC(=N)N)C(=O)N[C@@H](CCCCN)C(=O)N2)NC(=O)[C@H](CSSC[C@@H](C(=O)N[C@@H](CCCCN)C(=O)N[C@@H](Cc2ccc(O)cc2)C(=O)N[C@H](C(=O)N[C@@H](Cc2ccccc2)C(N)=O)C(C)C)NC(=O)[C@H](Cc2c[nH]c4ccccc24)NC(=O)[C@H](CC(=O)O)NC(=O)[C@H](Cc2cnc[nH]2)NC(=O)[C@H]([C@@H](C)O)NC(=O)[C@H](CCCNC(=N)N)NC(=O)[C@H](CO)NC3=O)NC(=O)[C@H](CCCCN)NC(=O)[C@H](CC(=O)O)NC(=O)[C@H](CC(N)=O)NC(=O)[C@H](CC(=O)O)NC(=O)[C@@H]2CCCN2C1=O` [[Asp28]GpTx-1(1-34)] (H-DCLGFMRKCIPDNDKCCRPNLVCSRTHDWCKYVF-NH2; disulfide 2-17, 9-23, 16-30), the pIC50 was 7.82.

`CC[C@H](C)[C@@H]1NC(=O)[C@@H]2CSSC[C@@H]3NC(=O)[C@H](C(C)C)NC(=O)[C@H](CC(C)C)NC(=O)[C@H](CC(N)=O)NC(=O)[C@@H]4CCCN4C(=O)[C@H](CCCNC(=N)N)NC(=O)[C@H](CSSC[C@H](NC(=O)[C@@H](N)CC(=O)O)C(=O)N[C@@H](CC(C)C)C(=O)NCC(=O)N[C@@H](C4CCCCC4)C(=O)N[C@@H](CCSC)C(=O)N[C@@H](CCCNC(=N)N)C(=O)N[C@@H](CCCCN)C(=O)N2)NC(=O)[C@H](CSSC[C@@H](C(=O)N[C@@H](CCCCN)C(=O)N[C@@H](Cc2ccc(O)cc2)C(=O)N[C@H](C(=O)N[C@@H](Cc2ccccc2)C(N)=O)C(C)C)NC(=O)[C@H](Cc2c[nH]c4ccccc24)NC(=O)[C@H](CCCCN)NC(=O)[C@H](Cc2cnc[nH]2)NC(=O)[C@H]([C@@H](C)O)NC(=O)[C@H](CCCNC(=N)N)NC(=O)[C@H](CO)NC3=O)NC(=O)[C@H](CCCCN)NC(=O)[C@H](CC(=O)O)NC(=O)[C@H](CC(N)=O)NC(=O)[C@H](CC(=O)O)NC(=O)[C@@H]2CCCN2C1=O` [[Chg5]GpTx-1(1-34)]: the pIC50 was 8.15.

The same assay, now with this note: read-out: Nav1.7 Use IC50.
Take `CCCC[C@@H]1NC(=O)[C@H](C)NC(=O)CNC(=O)[C@H](CC(C)C)NC(=O)[C@@H](NC(=O)[C@@H](N)CC(=O)O)CSSC[C@@H]2NC(=O)[C@@H]3CSSC[C@@H](C(=O)N[C@@H](CCCCN)C(=O)N[C@@H](Cc4ccc(O)cc4)C(=O)N[C@H](C(=O)N[C@@H](Cc4ccccc4)C(N)=O)C(C)C)NC(=O)[C@H](Cc4c[nH]c5ccccc45)NC(=O)[C@H](CCCCN)NC(=O)[C@H](Cc4c[nH]cn4)NC(=O)[C@H]([C@@H](C)O)NC(=O)[C@H](CCCNC(=N)N)NC(=O)[C@H](CO)NC(=O)[C@H](CSSC[C@H](NC(=O)[C@H](CCCCN)NC(=O)[C@H](CCCNC(=N)N)NC1=O)C(=O)N[C@@H]([C@@H](C)CC)C(=O)N1CCC[C@H]1C(=O)N[C@@H](CC(=O)O)C(=O)N[C@@H](CC(N)=O)C(=O)N[C@@H](CC(=O)O)C(=O)N[C@@H](CCCCN)C(=O)N3)NC(=O)[C@H](C(C)C)NC(=O)[C@H](CC(C)C)NC(=O)[C@H](CC(N)=O)NC(=O)[C@@H]1CCCN1C(=O)[C@H](CCCNC(=N)N)NC2=O` [[Ala5;Nle6]GpTx-1(1-34)]: the pIC50 is 8.00.

For the compound `CC[C@H](C)[C@@H]1NC(=O)[C@@H]2CSSC[C@@H]3NC(=O)[C@H](C(C)C)NC(=O)[C@H](CC(C)C)NC(=O)[C@H](CC(N)=O)NC(=O)[C@@H]4CCCN4C(=O)[C@H](CCCNC(=N)N)NC(=O)[C@H](CSSC[C@H](NC(=O)[C@@H](N)CC(=O)O)C(=O)N[C@@H](CC(C)C)C(=O)NCC(=O)N[C@@H](C)C(=O)N[C@@H](Cc4ccccc4)C(=O)N[C@@H](CCCNC(=N)N)C(=O)N[C@@H](CCCCN)C(=O)N2)NC(=O)[C@H](CSSC[C@@H](C(=O)N[C@@H](CCCCN)C(=O)N[C@@H](Cc2ccc(O)cc2)C(=O)N[C@H](C(=O)N[C@@H](Cc2ccccc2)C(N)=O)C(C)C)NC(=O)[C@H](Cc2c[nH]c4ccccc24)NC(=O)[C@H](CCCCN)NC(=O)[C@H](Cc2c[nH]cn2)NC(=O)[C@H](CC(C)C)NC(=O)[C@H](CCCNC(=N)N)NC(=O)[C@H](CO)NC3=O)NC(=O)[C@H](CCCCN)NC(=O)[C@H](CC(=O)O)NC(=O)[C@H](CC(N)=O)NC(=O)[C@H](CC(=O)O)NC(=O)[C@@H]2CCCN2C1=O` [[Ala5;Phe6;Leu26]GpTx-1(1-34)] (H-DCLGAFRKCIPDNDKCCRPNLVCSRLHKWCKYVF-NH2; disulfide 2-17, 9-23, 16-30), the pIC50 is 8.40.

Consider `CC[C@H](C)[C@@H]1NC(=O)[C@@H]2CSSC[C@@H]3NC(=O)[C@H](C(C)C)NC(=O)[C@H](CC(C)C)NC(=O)[C@H](CC(N)=O)NC(=O)[C@@H]4CCCN4C(=O)[C@H](CCCNC(=N)N)NC(=O)[C@H](CSSC[C@H](NC(=O)[C@@H](N)CC(=O)O)C(=O)N[C@@H](CC(C)C)C(=O)NCC(=O)N[C@@H](Cc4ccccc4)C(=O)N[C@@H](CCSC)C(=O)N[C@@H](CCCNC(=N)N)C(=O)N[C@@H](CCCCN)C(=O)N2)NC(=O)[C@H](CSSC[C@@H](C(=O)N[C@@H](CCCCN)C(=O)N[C@@H](Cc2ccc(O)cc2)C(=O)N[C@H](C(=O)N[C@@H](Cc2ccccc2)C(N)=O)C(C)C)NC(=O)[C@H](Cc2c[nH]c4ccccc24)NC(=O)[C@H](CCCCN)NC(=O)[C@H](Cc2c[nH]cn2)NC(=O)[C@H](CCCNC(=N)N)NC(=O)[C@H](CCCNC(=N)N)NC(=O)[C@H](CO)NC3=O)NC(=O)[C@H](CCCCN)NC(=O)[C@H](CC(=O)O)NC(=O)[C@H](CC(N)=O)NC(=O)[C@H](CC(=O)O)NC(=O)[C@@H]2CCCN2C1=O` [[Arg26]GpTx-1(1-34)] (H-DCLGFMRKCIPDNDKCCRPNLVCSRRHKWCKYVF-NH2; disulfide 2-17, 9-23, 16-30), for which the pIC50 is 8.30.

Turning to `CC[C@H](C)[C@@H]1NC(=O)[C@@H]2CSSC[C@@H]3NC(=O)[C@H](C(C)C)NC(=O)[C@H](CC(C)C)NC(=O)[C@H](CC(N)=O)NC(=O)[C@@H]4CCCN4C(=O)[C@H](CCCNC(=N)N)NC(=O)[C@H](CSSC[C@H](NC(=O)[C@@H](N)CC(=O)O)C(=O)N[C@@H](CC(C)C)C(=O)NCC(=O)N[C@@H](C4CCCC4)C(=O)N[C@@H](CCSC)C(=O)N[C@@H](CCCNC(=N)N)C(=O)N[C@@H](CCCCN)C(=O)N2)NC(=O)[C@H](CSSC[C@@H](C(=O)N[C@@H](CCCCN)C(=O)N[C@@H](Cc2ccc(O)cc2)C(=O)N[C@H](C(=O)N[C@@H](Cc2ccccc2)C(N)=O)C(C)C)NC(=O)[C@H](Cc2c[nH]c4ccccc24)NC(=O)[C@H](CCCCN)NC(=O)[C@H](Cc2c[nH]cn2)NC(=O)[C@H]([C@@H](C)O)NC(=O)[C@H](CCCNC(=N)N)NC(=O)[C@H](CO)NC3=O)NC(=O)[C@H](CCCCN)NC(=O)[C@H](CC(=O)O)NC(=O)[C@H](CC(N)=O)NC(=O)[C@H](CC(=O)O)NC(=O)[C@@H]2CCCN2C1=O` [[Cpg5]GpTx-1(1-34)], the pIC50 was 8.30.

The record behind these values is patent US9340590B2 (priority 2011, dated 2016).
